In US20020019536A1, “NEW URETHANES, THIO AND DITHIO ANALOGUES AND THEIR USE AS INHIBITORS OF CHOLESTEROL BIOSYNTHESIS” (priority 1997, published 2002):
In brackets after ≈: the same amount, converted by molar mass.

Legend:
[1] = tested on: 14C-acetate incorporation into the steroids which can be precipitated with digitonin (cholesterol biosynthesis); experiment: Inhibition of 14C-acetate incorporation into the steroids which can be precipitated with digitonin; assay type: cell-based
Excerpt: I. Measuring the Inhibition of ^14C-acetate incorporation into the steroids which can be precipitated with digitonin: The inhibitory effect was investigated using the method described in J. Lipid. Res. 37, 148-157 [1996] at test concentrations of 10^−8 and 10^−9 mol/l.

[2] = tested on: Trich. mentagrophytes ATCC 9129; experiment: Fungistatic activity, series dilution test; assay type: cell-based; details: Sabouraud broth, 2 to 4 days at 26° C.
Description: (§1) V. Determining the Fungistatic Activity
(§2) The fungistatic activity was determined by the series dilution test (microtitre system). Sabouraud broth was used as the nutrient medium. The inoculum amounted to about 10^4 to 10^5 CFU/ml (CFU=colony-forming units); the incubation period was 2 to 4 days at 26° C.
(§3) The lowest concentration which allows no visible growth (minimum inhibitory concentration MIC) was determined.
(§4) The abovementioned compounds B, E, G, I, K, L, N, Q and R were tested. The MIC is given in μg/ml.

[3] = tested on: Cand. albicans ATCC 10231; experiment: Fungistatic activity, series dilution test; assay type: cell-based; details: Sabouraud broth, 2 to 4 days at 26° C.
Description: as §1, §2, §3, §4

Pen. notatum CBS 19746 = experiment: Fungistatic activity, series dilution test; assay type: cell-based; details: Sabouraud broth, 2 to 4 days at 26° C.
Description: as §1, §2, §3, §4

[4] = tested on: Sacch. carisbergensis ATCC 9080; experiment: Fungistatic activity, series dilution test; assay type: cell-based; details: Sabouraud broth, 2 to 4 days at 26° C.
Description: as §1, §2, §3, §4

Asp. niger ATCC 16404 = experiment: Fungistatic activity, series dilution test; assay type: cell-based; details: Sabouraud broth, 2 to 4 days at 26° C.
Description: as §1, §2, §3, §4

Rhod. rubra 49 = experiment: Fungistatic activity, series dilution test; assay type: cell-based; details: Sabouraud broth, 2 to 4 days at 26° C.
Description: as §1, §2, §3, §4

[5] = molecular target: T1, 2,3-epoxysqualene-lanosterol-cyclase (Rattus norvegicus, UniProt P48450); experiment: In-vivo activity in the rat after oral administration: 2,3-epoxysqualene level in the liver
T1 construct: Measuring the in-vivo Activity in the Rat after Oral Administration; from tissue; host or cells: living rat; 2,3-epoxysqualene measured in the liver
T1 sequence (P48450 1-733): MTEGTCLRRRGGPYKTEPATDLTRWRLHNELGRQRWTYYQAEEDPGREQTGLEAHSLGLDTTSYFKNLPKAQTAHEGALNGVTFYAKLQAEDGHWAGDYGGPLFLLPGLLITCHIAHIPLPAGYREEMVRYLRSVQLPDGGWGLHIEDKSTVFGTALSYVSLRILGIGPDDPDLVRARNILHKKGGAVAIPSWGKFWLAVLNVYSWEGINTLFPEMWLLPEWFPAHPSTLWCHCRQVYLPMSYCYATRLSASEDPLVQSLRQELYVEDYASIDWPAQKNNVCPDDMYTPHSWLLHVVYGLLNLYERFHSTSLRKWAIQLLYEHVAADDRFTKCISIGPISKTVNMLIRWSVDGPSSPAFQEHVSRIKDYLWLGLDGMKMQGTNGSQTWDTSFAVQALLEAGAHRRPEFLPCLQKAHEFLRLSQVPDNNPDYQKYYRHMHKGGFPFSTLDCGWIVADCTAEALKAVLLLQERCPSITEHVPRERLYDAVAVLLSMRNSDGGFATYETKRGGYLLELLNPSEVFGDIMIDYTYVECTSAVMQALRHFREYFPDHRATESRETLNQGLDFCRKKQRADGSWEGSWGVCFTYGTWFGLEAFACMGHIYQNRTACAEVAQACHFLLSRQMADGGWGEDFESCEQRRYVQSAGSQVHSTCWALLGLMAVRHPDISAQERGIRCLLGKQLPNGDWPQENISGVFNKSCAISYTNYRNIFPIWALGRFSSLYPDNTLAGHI
Description: II. Measuring the in-vivo Activity in the Rat after Oral Administration
Inhibiting the enzyme 2,3-epoxysqualene-lanosterol-cyclase causes an increase in the 2,3-epoxisqualene levels in the liver and plasma. The quantity of 2,3-epoxysqualene formed therefore serves as a direct measurement of the potency on the animal as a whole. The amounts were determined using the method described in J. Lipid. Res. 38, 564-575, [1997] at t=3 or 8 hours after administration of the substance in concentrations of c=0.01, 0.03, 0.1, 0.3 and 1.0 mg/kg. Table 3 which follows gives the results obtained for the abovementioned substances A, B, C, E, G, H, O and R by way of example.
In the control animals there were no measurable 2,3-epoxisqualene levels under these conditions.

[6] = Lipid reduction in the normolipaemic golden hamster; assay type: in vivo; details: compared with control group
Description: III. Lipid Reduction in the Normolipaemic Golden Hamster This was determined using the method described in J. Lipid. Res. 38, 564-575, (1997). At the end of the experiment the total cholesterol, β-lipoprotein-cholesterol and HDL-cholesterol were determined and compared with the values of a control group which were fed without any test substance. The lipid-lowering activity of the abovementioned compounds E, G and I was tested.

[7] = 0.03 mg/kg oral, 3 h after administration
[8] = 0.03 mg/kg oral, 8 h after administration
[9] = 0.1 mg/kg oral, 3 h after administration
[10] = 0.1 mg/kg oral, 8 h after administration
[11] = 0.3 mg/kg oral, 3 h after administration
[12] = 0.3 mg/kg oral, 8 h after administration

Row | Structure (SMILES) | 2,3-epoxysqualene concentration in the liver (rat) [5, 7] [µg/g] | 2,3-epoxysqualene concentration in the liver (rat) [5, 8] [µg/g] | 2,3-epoxysqualene concentration in the liver (rat) [5, 9] [µg/g] | 2,3-epoxysqualene concentration in the liver (rat) [5, 10] [µg/g] | 2,3-epoxysqualene concentration in the liver (rat) [5, 11] [µg/g] | 2,3-epoxysqualene concentration in the liver (rat) [5, 12] [µg/g] | percentage inhibition of 14C-acetate incorporation ([1]; test concentration 10^−8 mol/l) [%] | percentage inhibition of 14C-acetate incorporation ([1]; test concentration 10^−9 mol/l) [%] | MIC Trich. [2] [µg/mL] | MIC Cand. [3] [µg/mL] | MIC Pen. (Pen. notatum CBS 19746) [µg/mL] | MIC Sacc. [4] [µg/mL] | MIC Asp. (Asp. niger ATCC 16404) [µg/mL] | MIC Rhod. (Rhod. rubra 49) [µg/mL] | further results
1 | CN(C)Cc1ccc([C@H]2CC[C@H](N(C)C(=S)SCc3cccc(F)c3)CC2)cc1.Cl [B, trans-S-(3-fluorobenzyl)-N-4-[4-(dimethylaminomethyl)-phenyl]cyclohexyl-N-methyldithiocarbamate-hydrochloride] | 24.5 | 57.1 | 96.0 | 150.9 | 98.5 | 234.5 | −85 | −59 | 1 | 2 | 2 | 8 | 2 | 2 | –
2 | CN(C)Cc1ccc([C@H]2CC[C@H](N(C)C(=S)Oc3ccc(Cl)cc3)CC2)cc1.Cl [G, trans-O-(4-chlorophenyl)-N-4-[4-(dimethylaminomethyl)-phenyl]cyclohexyl-N-methylthiocarbamate-hydrochloride] | 12.8 | 42.3 | 66.2 | 115.3 | 57.5 | 225.5 | −85 | −43 | 1 | 4 | 1 | 32 | 4 | 8 | HDL-cholesterol ([6]; dose 0.5 mg/kg/day): −21.1%; Total cholesterol ([6]; dose 0.5 mg/kg/day): −27.7%; β-Lipoprotein-cholesterol ([6]; dose 0.5 mg/kg/day): −40.2%; HDL-cholesterol ([6]; dose 1.5 mg/kg/day): −26.5%; Total cholesterol ([6]; dose 1.5 mg/kg/day): −31.1%; β-Lipoprotein-cholesterol ([6]; dose 1.5 mg/kg/day): −42.2%; HDL-cholesterol ([6]; dose 4.9 mg/kg/day): −24.3%; Total cholesterol ([6]; dose 4.9 mg/kg/day): −26.5%; β-Lipoprotein-cholesterol ([6]; dose 4.9 mg/kg/day): −33.2%; IC50 ([1]; 14C-acetate incorporation): 0.4 nM; 2,3-epoxysqualene concentration in the liver (rat) ([5]; 0.01 mg/kg oral, 3 h after administration): 5.2 µg/g; 2,3-epoxysqualene concentration in the liver (rat) ([5]; 0.01 mg/kg oral, 8 h after administration): 30.1 µg/g
3 | CN(C(=O)Oc1ccc(Cl)cc1)[C@H]1CC[C@H](c2ccc(CN3CCCCC3)cc2)CC1.Cl [I, trans-O-(4-chlorophenyl)-N-methyl-N-4-[4-(piperidinomethyl)phenyl]cyclohexylcarbamate-hydrochloride] | – | – | – | – | – | – | −83 | −43 | 8 | 64 | 64 | 64 | 256 | 64 | HDL-cholesterol ([6]; dose 0.46 mg/kg/day): −3.3%; Total cholesterol ([6]; dose 0.46 mg/kg/day): −16.1%; β-Lipoprotein-cholesterol ([6]; dose 0.46 mg/kg/day): −26.2%; HDL-cholesterol ([6]; dose 1.34 mg/kg/day): −5.0%; Total cholesterol ([6]; dose 1.34 mg/kg/day): −20.2%; β-Lipoprotein-cholesterol ([6]; dose 1.34 mg/kg/day): −33.7%; HDL-cholesterol ([6]; dose 4.89 mg/kg/day): −16.2%; Total cholesterol ([6]; dose 4.89 mg/kg/day): −25.7%; β-Lipoprotein-cholesterol ([6]; dose 4.89 mg/kg/day): −36.1%
4 | CCN(CC)Cc1ccc([C@H]2CC[C@H](N(C)C(=O)Oc3ccc(Cl)cc3)CC2)cc1.Cl [L, trans-O-(4-chlorophenyl)-N-4-[4-(diethylaminomethyl)-phenyl]cyclohexyl-N-methylcarbamate-hydrochloride] | – | – | – | – | – | – | −83 | −53 | 1 | 32 | 64 | 128 | 32 | 8 | –
5 | C#CCN(C)Cc1ccc([C@H]2CC[C@H](N(C)C(=O)Oc3ccc(Cl)cc3)CC2)cc1 [N, trans-O-(4-chlorophenyl)-N-methyl-N-4-[4-(N-methyl-N-propargylaminomethyl)phenyl]cyclohexylcarbamate] | – | – | – | – | – | – | −90 | −75 | 8 (≈ 18.8 µM) | 8 (≈ 18.8 µM) | 8 (≈ 18.8 µM) | 64 (≈ 151 µM) | >512 | 16 (≈ 37.6 µM) | –
6 | Cc1ccc(OC(=S)N(C)[C@H]2CC[C@H](c3ccc(CN4CCCCC4)cc3)CC2)cc1.Cl [Q, trans-N-Methyl-O-(4-methylphenyl)-N-4-[4-(piperidinomethyl)phenyl]cyclohexylthiocarbamate-hydrochloride] | – | – | – | – | – | – | −79 | −51 | 2 | 16 | 64 | 32 | 128 | 8 | –
